These results are taken from patent US20230348444A1, “NOVEL COMPOUNDS FOR USE IN THE TREATMENT OF DISEASES ASSOCIATED WITH ANGIOTENSIN II” (Vicore Pharma AB, priority 2020, published 2023).

Like-named read-outs stand apart in the source and are kept apart here.

The term IC50 denotes the concentration at which inhibition is half-maximal.

Data set [1] deals with CYP3A4&5. The data set can be described thus: CYP inhibition in human liver microsomes (Eurofins protocol ITEMG232), testosterone substrate. In kind it is in vitro ADME. The conditions noted are these: for CYP3A4&5 testosterone Inh %: 10 μM; for inhibition at 10 µM: probe testosterone, read-out: CYP3A4&5 testosterone Inh %. Here is the method:
(§1) The following substrates were used; CYP1A phenacetin, CYP2B6 bupropion, CYP2C8 paclitaxel and amodiaquine, CYP2C9 diclofenac, CYP2C19 omeprazole, CYP2D6 dextromethorphan, CYP3A midazolam and testosterone.
(§2) At the end of the incubation, the formation of metabolite was monitored by HPLC-MS/MS as the peak area response.

Data set [2] in a line: Metabolic stability in pooled human liver microsomes with or without NADPH. The data set is classed as in vitro ADME. The conditions noted are these: pooled human liver microsomes 0.5 mg/mL in PBS, 1 uM test compound, 37° C.; for half-life at 1 uM: human, pooled human liver microsomes. The protocol: Pooled human liver microsomes in PBS at a concentration of 0.5 mg/mL was incubated with or without 1 mM NADPH for 70 min at 37° C. Test compound was added after 10 minutes to a final concentration of 1 uM. Samples were withdrawn at 0, 5, 15 and 60 minutes and added to test tubes containing acetonitrile, to stop the reaction, and with terfenadine, used as internal standard. After centrifugation at 10000×g for 5 minutes the supernatant was diluted 1:1 with 1% formic acid. Samples were separated on a reverse phase column and detected by triple quadrupole MSMS (Agilant model 6540). The concentration of the parent compound at the different time points was measured with an external standard curve using terfenadine as internal standard and the initial metabolic rate in the presence or absence of NADPH calculated.
For orientation: Liver microsomes are a subcellular fraction often used to study metabolism.

The target in data set [3] is T1, human recombinant AT2 receptor (Homo sapiens, UniProt P50052).
T1 sequence (P50052 1-363): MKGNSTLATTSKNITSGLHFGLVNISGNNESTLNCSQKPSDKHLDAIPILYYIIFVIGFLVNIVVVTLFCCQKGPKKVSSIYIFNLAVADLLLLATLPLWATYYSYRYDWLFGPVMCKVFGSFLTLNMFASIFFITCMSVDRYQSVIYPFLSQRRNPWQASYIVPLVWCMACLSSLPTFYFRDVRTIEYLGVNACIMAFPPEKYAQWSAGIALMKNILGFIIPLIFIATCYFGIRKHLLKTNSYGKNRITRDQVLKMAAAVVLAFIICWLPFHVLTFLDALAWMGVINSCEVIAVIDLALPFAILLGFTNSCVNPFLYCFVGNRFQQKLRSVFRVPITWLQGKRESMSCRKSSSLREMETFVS
The data set can be described thus: Binding to AT2 receptor, radiometric scintillation assay (Eurofins protocol ITEM26 and ITEM24). Conditions: read-out: AT2 IC50, ligand 125I CGP 42112A, 1, 10, 100 and 1000 nM, 2-4 h at 37° C.
Experimental: Compounds were evaluated for binding to the human recombinant AT2 and AT1 receptor according to Eurofins protocol ITEM26 and ITEM24 using a radiometric scintillation assay.

For data set [4], the target named is T2, CYP2C8 (Homo sapiens, UniProt P10632).
T2 construct: using isoform-specific substrates incubated with human liver microsomes; tissue Eurofins ITEMG232; host or cells: human liver microsomes
T2 sequence (P10632 1-490): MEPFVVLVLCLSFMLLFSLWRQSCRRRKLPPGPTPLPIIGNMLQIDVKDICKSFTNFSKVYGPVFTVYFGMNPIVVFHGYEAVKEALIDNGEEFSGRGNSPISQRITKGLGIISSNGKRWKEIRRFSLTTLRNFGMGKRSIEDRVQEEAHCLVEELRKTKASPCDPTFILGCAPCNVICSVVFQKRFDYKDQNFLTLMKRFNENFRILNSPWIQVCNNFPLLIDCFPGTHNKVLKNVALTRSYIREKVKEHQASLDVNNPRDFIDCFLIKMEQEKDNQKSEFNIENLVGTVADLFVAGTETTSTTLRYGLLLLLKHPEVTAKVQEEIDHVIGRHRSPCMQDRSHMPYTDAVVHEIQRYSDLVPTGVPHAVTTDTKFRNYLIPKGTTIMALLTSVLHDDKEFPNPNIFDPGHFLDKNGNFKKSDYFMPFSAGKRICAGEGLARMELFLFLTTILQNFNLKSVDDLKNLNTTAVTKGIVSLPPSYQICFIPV
In words: CYP inhibition in human liver microsomes (Eurofins protocol ITEMG232). In kind it is in vitro ADME. Conditions: substrates paclitaxel and amodiaquine; for CYP2C8 Inh %: 10 μM; for inhibition at 10 µM: probe paclitaxel and amodiaquine, read-out: CYP2C8 Inh %. The protocol:
as §1, §2

In data set [5] the target is T3, CYP2B6 (Homo sapiens, UniProt P20813).
T3 construct: using isoform-specific substrates incubated with human liver microsomes; tissue Eurofins ITEMG232; host or cells: human liver microsomes
T3 sequence (P20813 1-491): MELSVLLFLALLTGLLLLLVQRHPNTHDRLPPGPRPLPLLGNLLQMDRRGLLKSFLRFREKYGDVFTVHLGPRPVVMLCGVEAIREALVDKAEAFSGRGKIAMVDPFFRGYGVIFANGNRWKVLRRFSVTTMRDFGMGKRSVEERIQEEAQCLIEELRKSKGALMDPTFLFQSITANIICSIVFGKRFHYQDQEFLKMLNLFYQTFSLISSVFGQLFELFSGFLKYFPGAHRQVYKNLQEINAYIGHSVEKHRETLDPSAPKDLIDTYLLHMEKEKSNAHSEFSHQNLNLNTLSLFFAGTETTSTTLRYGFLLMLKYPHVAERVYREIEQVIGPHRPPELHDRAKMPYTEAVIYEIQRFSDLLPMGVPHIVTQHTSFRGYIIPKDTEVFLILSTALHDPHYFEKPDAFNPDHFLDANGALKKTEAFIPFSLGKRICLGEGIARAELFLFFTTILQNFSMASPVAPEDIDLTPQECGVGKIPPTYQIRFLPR
The description is as above. Conditions: substrate bupropion; for CYP2B6 Inh %: 10 μM; for inhibition at 10 µM: probe bupropion, read-out: CYP2B6 Inh %. The data set is classed as in vitro ADME. Here is the method:
as §1, §2

The target of data set [6] is T4, CYP2D6 (Homo sapiens, UniProt P10635).
T4 construct: tissue Eurofins ITEMG232; host or cells: human liver microsomes
The description is as above. In kind it is in vitro ADME. Conditions: substrate dextromethorphan; for CYP2D6 Inh %: 10 μM; for inhibition at 10 µM: probe dextromethorphan, read-out: CYP2D6 Inh %. Here is the method: as §1, §2

Data set [7] has as its target CYP3A4 (Homo sapiens, UniProt P08684). In words: CYP inhibition in human liver microsomes (Eurofins protocol ITEMG232), midazolam substrate. The data set is classed as in vitro ADME. Also noted: using isoform-specific substrates incubated with human liver microsomes; tissue Eurofins ITEMG232; host or cells: human liver microsomes. The conditions noted are these: for CYP3A4 midazolam Inh %: 10 μM; for inhibition at 10 µM: probe midazolam, read-out: CYP3A4 midazolam Inh %. The protocol: as §1, §2

Setting [8] is: with 1 mM NADPH, read-out: T1/2, +NaDPH.
The mark [9] stands for this setting: without NADPH, read-out: T1/2, no NaDPH.

T4 sequence (P10635 whole entry): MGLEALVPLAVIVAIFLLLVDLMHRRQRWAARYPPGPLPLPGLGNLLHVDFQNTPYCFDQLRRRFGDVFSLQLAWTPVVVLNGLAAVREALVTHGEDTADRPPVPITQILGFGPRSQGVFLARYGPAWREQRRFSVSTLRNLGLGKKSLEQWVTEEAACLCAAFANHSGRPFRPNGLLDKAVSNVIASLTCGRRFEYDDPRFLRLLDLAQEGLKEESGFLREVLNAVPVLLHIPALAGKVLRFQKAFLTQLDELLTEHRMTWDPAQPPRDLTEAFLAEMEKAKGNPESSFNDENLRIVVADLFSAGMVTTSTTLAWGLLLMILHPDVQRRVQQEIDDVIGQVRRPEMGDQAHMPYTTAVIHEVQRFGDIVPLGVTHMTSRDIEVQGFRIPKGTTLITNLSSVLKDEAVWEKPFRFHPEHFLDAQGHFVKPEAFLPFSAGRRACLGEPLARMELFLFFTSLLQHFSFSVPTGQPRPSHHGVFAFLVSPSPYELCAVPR
Chain of CYP3A4 (P08684 whole entry, canonical isoform): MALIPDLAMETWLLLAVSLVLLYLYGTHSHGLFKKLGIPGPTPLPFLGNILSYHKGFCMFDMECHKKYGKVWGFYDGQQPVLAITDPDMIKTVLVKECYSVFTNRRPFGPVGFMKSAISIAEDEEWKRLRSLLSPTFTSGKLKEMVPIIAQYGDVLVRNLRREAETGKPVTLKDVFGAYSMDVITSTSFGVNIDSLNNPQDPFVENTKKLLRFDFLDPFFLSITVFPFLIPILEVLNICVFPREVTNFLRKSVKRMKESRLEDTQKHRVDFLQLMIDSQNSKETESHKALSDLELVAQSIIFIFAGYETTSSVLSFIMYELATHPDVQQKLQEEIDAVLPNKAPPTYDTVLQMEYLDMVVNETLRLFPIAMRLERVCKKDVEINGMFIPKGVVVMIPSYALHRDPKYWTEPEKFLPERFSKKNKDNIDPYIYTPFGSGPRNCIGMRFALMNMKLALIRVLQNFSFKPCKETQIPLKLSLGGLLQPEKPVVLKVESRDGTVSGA

Consider `CCOC(=O)NS(=O)(=O)c1sc(CC(C)C)cc1-c1ccc(Cn2ccnc2C)c(F)c1.O=C(O)C(F)(F)F` [Example 1, Ethyl (3-(3-fluoro-4-((2-methyl-1H-imidazol-1-yl)methyl)phenyl)-5-isobutylthiophen-2-yl)sulfonvicarbamate trifluoroacetic acid], for which the “CYP3A4&5 testosterone Inh %” value in data set [1] was −2%. In data set [2] (with 1 mM NADPH), the “T1/2, +NaDPH” value is given as 50 min. Besides, the “T1/2, no NaDPH” value in data set [2] (without NADPH) is 60 min. In addition, in data set [3], the IC50 turned out to be 2.4 nM. The “CYP2C8 Inh %” value in data set [4] worked out at 37%. Moreover, the “CYP2B6 Inh %” value in data set [5] is 39%. Besides, the “CYP2D6 Inh %” value in data set [6] came out at 45%. The “CYP3A4 midazolam Inh %” value in data set [7] is reported as −42%.

As for `COCCOC(=O)NS(=O)(=O)c1sc(CC(C)C)cc1-c1ccc(Cn2ccnc2C)c(F)c1.O=C(O)C(F)(F)F` [Example 3], in data set [1], the “CYP3A4&5 testosterone Inh %” value is on record as −20%. For the same compound, in data set [2] (with 1 mM NADPH), the “T1/2, +NaDPH” value is given as greater than 60 min. Moreover, in data set [2] (without NADPH), the “T1/2, no NaDPH” value is listed as greater than 60 min. Also, in data set [3], the IC50 is 3.5 nM. The “CYP2C8 Inh %” value in data set [4] is 26%. Further, the “CYP2B6 Inh %” value in data set [5] was determined as 36%. Also, the “CYP2D6 Inh %” value in data set [6] is on record as 44%. Also, in data set [7], the “CYP3A4 midazolam Inh %” value is −52%.

In the case of `CCc1nccn1Cc1ccc(-c2cc(CC(C)C)sc2S(=O)(=O)NC(=O)OCc2ccc(F)cc2)cc1F.O=C(O)C(F)(F)F` [Example 6, 4-Fluorobenzyl (3-(4((2-ethyl-1H-imidazol-1-yl)methyl)-3-fluorophenyl)-5-isobutylthio-phen-2-yl)sulfonylcarbamate trifluoroacetic acid], in data set [1], the “CYP3A4&5 testosterone Inh %” value was found to be 13%. Also, in data set [2] (with 1 mM NADPH), the “T1/2, +NaDPH” value was determined as 7 min. Moreover, in data set [2] (without NADPH), the “T1/2, no NaDPH” value amounted to 50 min. In addition, in data set [3], the IC50 was 1.8 nM. Also, the “CYP2C8 Inh %” value in data set [4] is recorded as 55%. For the same compound, in data set [5], the “CYP2B6 Inh %” value worked out at 30%. In addition, the “CYP2D6 Inh %” value in data set [6] turned out to be 50%. Besides, in data set [7], the “CYP3A4 midazolam Inh %” value is listed as −39%.

Take `CCOC(=O)NS(=O)(=O)c1sc(CC(C)C)cc1-c1ccc(Cn2ccnc2CC)c(F)c1.O=C(O)C(F)(F)F` [Example 7, Ethyl (3-(4-((2-ethyl-1H-imidazol-1-yl)methyl)-3-fluorophenyl)-5-isobutylthiophen-2-30 yl)sulfonylcarbamate trifluoroacetic acid]: the “CYP3A4&5 testosterone Inh %” value in data set [1] is listed as 18%. Moreover, the “T1/2, +NaDPH” value in data set [2] (with 1 mM NADPH) turned out to be 40 min. Besides, in data set [2] (without NADPH), the “T1/2, no NaDPH” value amounted to 40 min. In addition, the IC50 in data set [3] is 1.8 nM. Moreover, the “CYP2C8 Inh %” value in data set [4] is 66%. Besides, the “CYP2B6 Inh %” value in data set [5] is reported as 26%. Moreover, in data set [6], the “CYP2D6 Inh %” value worked out at 39%. Also, in data set [7], the “CYP3A4 midazolam Inh %” value is given as −31%.

`CCOC(=O)NS(=O)(=O)c1sc(CC(C)C)cc1-c1ccc(Cn2ccnc2C(C)C)c(F)c1.O=C(O)C(F)(F)F` [Example 8, Ethyl (3-(3-fluoro-4-((2-isopropyl-1H-imidazol-1-yl)methyl)phenyl)-5-isobutylthio-phen-2-yl)sulfonylcarbamate trifluoroacetic acid]: in data set [1], the “CYP3A4&5 testosterone Inh %” value is reported as −20%. Further, in data set [2] (with 1 mM NADPH), the “T1/2, +NaDPH” value is 46 min. Further, the “T1/2, no NaDPH” value in data set [2] (without NADPH) turned out to be 53 min. In addition, the IC50 in data set [3] was 3.5 nM. Moreover, the “CYP2C8 Inh %” value in data set [4] turned out to be 26%. Further, the “CYP2B6 Inh %” value in data set [5] was 36%. Moreover, the “CYP2D6 Inh %” value in data set [6] worked out at 44%. For the same compound, the “CYP3A4 midazolam Inh %” value in data set [7] is on record as −52%.

As for `Cc1nccn1Cc1c(F)cc(-c2cc(CC(C)C)sc2S(=O)(=O)NC(=O)OCCO)cc1F` [Example 18, 2-Hydroxyethyl (3-(3,5-difluoro-4-((2-methyl-1H-imidazol-1-yl)methyl)phenv1)-5-isobutylthiophen-2-yl)sulfonylcarbamate], the “CYP3A4&5 testosterone Inh %” value in data set [1] amounted to 1.7%. Moreover, in data set [2] (with 1 mM NADPH), the “T1/2, +NaDPH” value was determined as 4 min. For the same compound, the “T1/2, no NaDPH” value in data set [2] (without NADPH) is listed as greater than 60 min. Further, in data set [3], the IC50 worked out at 0.87 nM. In data set [4], the “CYP2C8 Inh %” value is reported as 56.1%. Also, the “CYP2B6 Inh %” value in data set [5] worked out at 33.3%. Moreover, in data set [6], the “CYP2D6 Inh %” value was 48.8%. In addition, in data set [7], the “CYP3A4 midazolam Inh %” value is given as −35.6%.

Take `Cc1nccn1Cc1ccc(-c2cc(CC(C)C)sc2S(=O)(=O)NC(=O)OCCOC(=O)C(C)(C)C)cc1F` [Example 19, 2-((((3-(3-Fluoro-4-((2-methyl-1H-imidazol-1-yl)methyl)phenyl)-5-isobutylthiophen-2-yl)sulfonyl)carbamoyl)oxy)ethyl pivalate]: the inhibition at 10 µM in data set [1] is 20.7%; in data set [4], 83.2%; in data set [5], 26.9%; in data set [6] it was 31.3%; in data set [7], 43.4%. The half-life at 1 uM came to 1 min in data set [2] (setting [8]) and 12 min in data set [2] (setting [9]).

As for `CC(C)Cc1cc(-c2ccc(Cn3ccnc3C(C)(C)C)c(F)c2)c(S(=O)(=O)NC(=O)c2ccccn2)s1` [Example 27, N-((3-(4-((2-(Tert-Butyl)-1H-imidazol-1-yl)methyl)-3-fluorophenyl)-5-isobutylthio-phen-2-yl)sulfonyl)picolinamide], the inhibition at 10 µM in data set [1] stood at 27.4%; in data set [4], 65.7%; in data set [5] it was 25%; in data set [6], 20.1%; in data set [7] it was 7.3%. The half-life at 1 uM in data set [2] (setting [8]) and in data set [2] (setting [9]) was 4 min throughout.
